In ChEMBL document CHEMBL5143523, “Construction and activity evaluation of novel benzodioxane derivatives as dual-target antifungal inhibitors” (Eur J Med Chem, 2022):
In brackets after ≈: the same amount, converted by molar mass.

Assays:
Candida tropicalis = assay: Antifungal activity against Candida tropicalis ATCC 1369 assessed as fungal growth inhibition measured after 72 hrs by CLSI protocol based liquid medium dilution method; assay type: functional
Aspergillus fumigatus = assay: Antifungal activity against Aspergillus fumigatus KM8001 assessed as fungal growth inhibition measured after 72 hrs by CLSI protocol based liquid medium dilution method; assay type: functional
Nakaseomyces glabratus = assay: Antifungal activity against Candida glabrata ATCC 0001 assessed as fungal growth inhibition measured after 72 hrs by CLSI protocol based liquid medium dilution method; assay type: functional
Candida albicans [1] = assay: Antifungal activity against Candida albicans ATCC 10231 assessed as fungal growth inhibition measured after 72 hrs by CLSI protocol based liquid medium dilution method; assay type: functional
Pichia kudriavzevii = assay: Antifungal activity against Candida krusei ATCC 6258 assessed as fungal growth inhibition measured after 72 hrs by CLSI protocol based liquid medium dilution method; assay type: functional
Candida albicans [2] = assay: Antifungal activity against fluconazole resistant Candida albicans strain 901 assessed as fungal growth inhibition measured after 72 hrs by CLSI protocol based liquid medium dilution method; assay type: functional
Candida albicans [3] = assay: Antifungal activity against Candida albicans ATCC SC5314 assessed as decrease in ergosterol content at 4 ug/ml incubated for 48 hrs by LC-MS analysis (reference value: 90.6%); assay type: functional; set-up: scale not given: the % may be the effect or the level left; details: dose 4 µg/ml
Candida albicans [4] = assay: Antifungal activity against Candida albicans ATCC SC5314 assessed as change in squalene level at 4 ug/ml incubated for 48 hrs by LC-MS analysis; assay type: functional; details: dose 4 µg/ml
Candida albicans [5] = assay: Induction of apoptosis in Candida albicans ATCC SC5314 cells assessed as late apoptotic cells at 8 ug/ml incubated for 72 hrs by Annexin V-FITC/PI staining based flow cytometry method (reference value: 0.12%); assay type: functional; details: dose 8 µg/ml
Candida albicans [6] = assay: Induction of apoptosis in Candida albicans ATCC SC5314 cells assessed as live cells at 8 ug/ml incubated for 72 hrs by Annexin V-FITC/PI staining based flow cytometry method (reference value: 95.56%); assay type: functional; details: dose 8 µg/ml
Candida albicans [7] = assay: Antifungal activity against Candida albicans ATCC SC5314 assessed as change in unknown sterol level at 4 ug/ml incubated for 48 hrs by LC-MS analysis (reference value: 4.3%); assay type: functional; details: dose 4 µg/ml
Candida albicans [8] = assay: Antifungal activity against Candida albicans ATCC SC5314 assessed as change in lanosterol level at 4 ug/ml incubated for 48 hrs by LC-MS analysis (reference value: 3.7%); assay type: functional; details: dose 4 µg/ml
Candida albicans [9] = assay: Induction of apoptosis in Candida albicans ATCC SC5314 cells assessed as early apoptotic cells at 8 ug/ml incubated for 72 hrs by Annexin V-FITC/PI staining based flow cytometry method (reference value: 0.56%); assay type: functional; details: dose 8 µg/ml
Candida albicans [10] = assay: Induction of apoptosis in Candida albicans ATCC SC5314 cells assessed as necrotic cells at 8 ug/ml incubated for 72 hrs by Annexin V-FITC/PI staining based flow cytometry method (reference value: 3.76%); assay type: functional; details: dose 8 µg/ml
[11] = target: Lanosterol 14-alpha demethylase (Candida albicans (strain SC5314 / ATCC MYA-2876) (Yeast), UniProt P10613); assay: Inhibition of CYP51 in Candida albicans ATCC SC5314 incubated for 30 mins using eburicol as substrate in presence of NADPH by HPLC analysis
Candida albicans [12] = assay: Antifungal activity against fluconazole resistant Candida albicans strain 103 assessed as fungal growth inhibition measured after 72 hrs by CLSI protocol based liquid medium dilution method; assay type: functional
Candida albicans [13] = assay: Antifungal activity against fluconazole resistant Candida albicans strain 904 assessed as fungal growth inhibition measured after 72 hrs by CLSI protocol based liquid medium dilution method; assay type: functional
Candida albicans [14] = assay: Antifungal activity against fluconazole resistant Candida albicans strain 17# assessed as fungal growth inhibition measured after 72 hrs by CLSI protocol based liquid medium dilution method; assay type: functional
Candida albicans [15] = assay: Antifungal activity against fluconazole resistant Candida albicans strain CaR assessed as fungal growth inhibition measured after 72 hrs by CLSI protocol based liquid medium dilution method; assay type: functional
Candida albicans [16] = assay: Antifungal activity against Candida albicans ATCC SC5314 assessed as change in eburicol level at 4 ug/ml incubated for 48 hrs by LC-MS analysis (reference value: 1.4%); assay type: functional; details: dose 4 µg/ml
Candida albicans [17] = assay: Antifungal activity against Candida albicans assessed as fungal growth inhibition measured after 72 hrs by CLSI protocol based liquid medium dilution method; assay type: functional

Chain of Lanosterol 14-alpha demethylase (P10613 whole entry): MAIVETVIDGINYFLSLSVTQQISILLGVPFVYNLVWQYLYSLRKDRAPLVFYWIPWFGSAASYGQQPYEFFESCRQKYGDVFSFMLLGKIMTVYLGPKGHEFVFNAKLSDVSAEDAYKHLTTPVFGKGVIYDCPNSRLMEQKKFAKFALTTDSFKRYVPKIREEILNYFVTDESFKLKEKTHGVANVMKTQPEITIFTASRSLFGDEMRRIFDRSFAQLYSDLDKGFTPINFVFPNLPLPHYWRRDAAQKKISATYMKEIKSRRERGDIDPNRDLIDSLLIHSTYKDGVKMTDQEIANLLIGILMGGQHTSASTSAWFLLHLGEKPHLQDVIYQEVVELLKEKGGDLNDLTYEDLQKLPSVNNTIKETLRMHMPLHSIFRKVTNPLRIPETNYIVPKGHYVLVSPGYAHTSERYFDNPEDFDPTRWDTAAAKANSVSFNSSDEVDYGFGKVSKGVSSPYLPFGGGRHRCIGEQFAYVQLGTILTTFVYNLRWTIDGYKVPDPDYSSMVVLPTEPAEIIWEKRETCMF

SMILES	MIC50 (Candida tropicalis) [µg/mL]	MIC50 (Aspergillus fumigatus) [µg/mL]	MIC50 (Nakaseomyces glabratus) [µg/mL]	MIC50 (Candida albicans [1]) [µg/mL]	MIC50 (Pichia kudriavzevii) [µg/mL]	also measured
CCC(C)[C@H](NC(=O)c1cccc2c1OCCO2)C(=O)N[C@@H](Cn1cncn1)c1ccccc1 (stereo partly specified)	0.25 (≈ 0.539 µM)	4 (≈ 8.63 µM)	0.5 (≈ 1.08 µM)	0.125 (≈ 0.27 µM)	0.25 (≈ 0.539 µM)	–
CCC(C)[C@H](NC(=O)c1cccc2c1OCCO2)C(=O)N[C@@H](Cn1ccnc1)c1ccccc1 (stereo partly specified)	0.25 (≈ 0.54 µM)	> 8	0.25 (≈ 0.54 µM)	0.5 (≈ 1.08 µM)	0.5 (≈ 1.08 µM)	–
O=C(N[C@H](Cc1ccccc1)Cn1ccnc1)c1ccc2c(c1)OCCO2	0.5 (≈ 1.38 µM)	4 (≈ 11 µM)	0.25 (≈ 0.688 µM)	0.5 (≈ 1.38 µM)	0.5 (≈ 1.38 µM)	–
CCC(C)[C@H](NC(=O)c1ccc2c(c1)OCCO2)C(=O)Nc1ccncc1 (stereo partly specified)	0.5 (≈ 1.35 µM)	> 8	2 (≈ 5.41 µM)	0.5 (≈ 1.35 µM)	1 (≈ 2.71 µM)	–
O=C(N[C@H](Cc1ccccc1)Cn1cncn1)c1cccc2c1OCCO2	0.25 (≈ 0.686 µM)	4 (≈ 11 µM)	0.5 (≈ 1.37 µM)	0.25 (≈ 0.686 µM)	0.5 (≈ 1.37 µM)	–
O=C(N[C@@H](Cn1cncn1)c1ccccc1)c1ccc2c(c1)OCCO2	0.5 (≈ 1.43 µM)	> 8	0.125 (≈ 0.357 µM)	0.125 (≈ 0.357 µM)	0.5 (≈ 1.43 µM)	–
CCC(C)[C@H](NC(=O)c1cccc2c1OCCO2)C(=O)Nc1cccnc1 (stereo partly specified)	0.5 (≈ 1.35 µM)	> 8	1 (≈ 2.71 µM)	0.5 (≈ 1.35 µM)	2 (≈ 5.41 µM)	–
CC(C)[C@H](NC(=O)c1ccc2c(c1)OCCO2)C(=O)Nc1ccncc1	0.5 (≈ 1.41 µM)	> 8	0.5 (≈ 1.41 µM)	0.5 (≈ 1.41 µM)	0.25 (≈ 0.703 µM)	–
OC(Cn1cncn1)(Cn1cncn1)c1ccc(F)cc1F [FLUCONAZOLE]	0.5 (≈ 1.63 µM)	> 8	0.25 (≈ 0.816 µM)	0.25 (≈ 0.816 µM)	0.5 (≈ 1.63 µM)	MIC50 (Candida albicans [2]): > 8 µg/mL; Activity (Candida albicans [3]): 29.5%; Activity (Candida albicans [4]): 2.7%; Activity (Candida albicans [5]): 3.02%; Activity (Candida albicans [6]): 76.56%; Activity (Candida albicans [7]): 5.6%; Activity (Candida albicans [8]): 21.6%; Activity (Candida albicans [9]): 1.83%; Activity (Candida albicans [10]): 18.59%; IC50 [11]: 148 nM; MIC50 (Candida albicans [12]): > 8 µg/mL; MIC50 (Candida albicans [13]): > 8 µg/mL; MIC50 (Candida albicans [14]): > 8 µg/mL; MIC50 (Candida albicans [15]): > 8 µg/mL; Activity (Candida albicans [16]): 40.6%
CC(C)[C@H](NC(=O)c1cccc2c1OCCO2)C(=O)Nc1ccncc1	0.5 (≈ 1.41 µM)	4 (≈ 11.3 µM)	0.5 (≈ 1.41 µM)	0.5 (≈ 1.41 µM)	1 (≈ 2.81 µM)	MIC50 (Candida albicans [17]): 0.5 µg/mL (≈ 1.41 µM)
O=C(N[C@@H](Cn1cncn1)c1ccccc1)c1cccc2c1OCCO2	0.5 (≈ 1.43 µM)	> 8	1 (≈ 2.85 µM)	0.125 (≈ 0.357 µM)	0.25 (≈ 0.714 µM)	–
CC(C)[C@H](NC(=O)c1ccc2c(c1)OCCO2)C(=O)Nc1cccnc1	1 (≈ 2.81 µM)	> 8	1 (≈ 2.81 µM)	0.25 (≈ 0.703 µM)	0.5 (≈ 1.41 µM)	–
